Each structure is given as a SMILES string.

Drawing on US5208251A, “Styryl pyrazoles, isoxazoles and analogs thereof having activity as 5-lipoxygenase inhibitors, pharmaceutical compositions and methods of use therefor” (Warner-Lambert Company, priority 1989, dated 1993), this text covers IC50 for 12 compounds.

This assay relates to cyclooxygenase. The experiment in a line: ARBC whole cell cyclooxygenase assay (RBL-1 cells, PGF2α). Type of assay: cell-based, rat. The note with it: RBL-1 intact cell cyclooxygenase, PGF2α by RIA, A23187 5 μM. As to the method: ARBL/ARBC Whole Cell 5-Lipoxygenase and Cyclooxygenase Assays
The rat basophilic leukemia cell line (RBL-1) was obtained from the American Type Culture Collection (Rockville, Md.).
Radioimmuno assay (RIA) kits of LTB4 and PGF2α were obtained from Amersham (Arlington Heights, IL) and Seragen (Boston, Mass.) respectively.
All tissue culture media were obtained from GIBCO (Grand Island, N.Y.).
RBL-1 cells were grown in culture (suspension) in Eagle's minimum essential medium supplemented with fetal bovine serum and 1:100 antibiotic-antimycotic mixture at 37° C. in an incubator supplied with air-5% carbon dioxide. Cells were harvested by centrifugation. They were washed with cold phosphate buffered saline pH 7.4 (PBS; NaCl, 7.1 g; Na2 HPO4, 1.15 g; KH2 PO4, 0.2 g; and KCl, 0.2 g/L). […] Calcium ionophore A23187 (5 μM) was added and cells were incubated for seven minutes at 37° C. The reaction was stopped by chilling the tubes in ice for ten minutes. Cells were separated by centrifugation and the supernatant was stored at -20° . Aliquots (100 μl) were analyzed for LTB4 and PGF2α using radioimmuno assay kits as provided by the supplier.

The compound `Cc1cc(C=Cc2cc(C(C)(C)C)c(O)c(C(C)(C)C)c2)n(CC(=O)O)n1` [Example 10P, 5-[β-(4'-Hydroxy-3',5'-di-t-butylphenyl)ethenyl]-3-methyl-1H-pyrazole-1-acetic acid] returned an IC50 of over 30 µM.

The compound `COc1cc(C=Cc2cc(C)n(CC(=O)O)n2)cc(OC)c1O` [Example 10N, 3-[β-(4'-Hydroxy-3',5'-dimethoxyphenyl)ethenyl]-5-methyl-1H-pyrazole-1-acetic acid] registered an IC50 of over 30 µM.

For the compound `Cc1cc(C(=Cc2cc(C)c(O)c(C)c2)C(=O)O)on1` [Example 52, 5-[α-carboxy-β-(4'-hydroxy-3',5'-dimethylphenyl)ethenyl]-3-methylisoxazole], the IC50 was over 20 µM.

As for `COC(=O)Cn1nc(C)cc1C=Cc1ccc(O)c(OC)c1` [Example 10I, 5-[β-(4'-Hydroxy-3'-methoxyphenyl)ethenyl]-3-methyl-1H-pyrazole-1-acetic acid methyl ester], the IC50 is over 25 µM.

`CCOC(=O)Cn1nc(C)cc1/C=C/c1cc(OC)c(O)c(OC)c1` [Example 10D, (E)-5-[β-(4'-Hydroxy-3',5'-dimethoxyphenyl)ethenyl]-3-methyl-1H-pyrazole-1-acetic acid, ethyl ester] showed a half-maximal inhibitory concentration (IC50) of over 30 µM.

Turning to `COC(=O)Cn1nc(C=Cc2cc(C(C)(C)C)c(O)c(C(C)(C)C)c2)cc1C` [Example 10G-1], the IC50 was over 30 µM.

`Cc1cc(C=Cc2cc(Cl)cc(Cl)c2O)on1` [Example 32J, 5-[β-(2'-Hydroxy-3',5'-dichlorophenyl)ethenyl]-3-methylisoxazole] came in with an IC50 of over 30 µM.

Compound `COC(=O)Cn1nc(C=Cc2cc(OC)c(O)c(OC)c2)cc1C` [Example 10H, 3-[β-(4'-Hydroxy-3',5'-dimethoxyphenyl)ethenyl]-5-methyl-1H-pyrazole-1-acetic acid, methyl ester] showed an IC50 of over 30 µM.

The compound `COc1cc(C=Cc2cc(C)nn2CC(=O)O)cc(OC)c1O` [Example 10M, 5-[β-(4'-Hydroxy-3',5'-dimethoxyphenyl)ethenyl]-3-methyl-1H-pyrazole-1-acetic acid] gave an IC50 of over 30 µM.

For `COC(=O)Cn1nc(C)cc1C=Cc1cc(C(C)(C)C)c(O)c(C(C)(C)C)c1` [Example 10G-2], the IC50 was over 30 µM.

Compound `Cc1cc(C=Cc2cc(C(C)(C)C)c(O)c(C(C)(C)C)c2)nn1CC(=O)O` [Example 10Q, 3-[β-(4'-Hydroxy-3',5'-di-t-butylphenyl)ethenyl]-5-methyl-1H-pyrazole-1-acetic acid] came in with an IC50 of over 30 µM.

In the case of `COC(=O)C(=Cc1cc(OC)c(O)c(OC)c1)c1cc(C)no1` [Example 40, 5-[α-Carbomethoxy-β-(4'-hydroxy-3',5'-dimethoxyphenyl)ethenyl]-3-methylisoxazole], the IC50 is over 25 µM.
